Results from patent US20240279237A1, “FUSED BICYCLIC HETEROARYL COMPOUNDS USEFUL AS NLRP3 INHIBITORS” (Hoffmann-La Roche Inc., priority 2021, published 2024).

Target: T1, NLRP3 (Homo sapiens, UniProt Q96P20)
T1 construct: Seed THP-1 cells (25,000 cells/well) containing 1.0 μg/ml LPS in 40 μl of RPMI medium; host or cells: THP-1 cells
Assay: THP-1 Cells Pyroptosis Assay
Assay type: cell-based
Conditions: THP-1 cells with 1.0 μg/ml LPS; compound 3 hours; nigericin 5 μM 1 hr; resazurin readout
Procedure, shortened: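 THP-1 cells in serum-free RPMI primed with LPS (1 μg/ml FAC), incubated with compound 3 h at 37 °C, then nigericin (5 μM FAC) for 1 h. Supernatant removed after spin; viability read by resazurin (100 μM FAC) reduction after a further 1-2 h at 37 °C.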

T1 sequence (Q96P20 whole entry): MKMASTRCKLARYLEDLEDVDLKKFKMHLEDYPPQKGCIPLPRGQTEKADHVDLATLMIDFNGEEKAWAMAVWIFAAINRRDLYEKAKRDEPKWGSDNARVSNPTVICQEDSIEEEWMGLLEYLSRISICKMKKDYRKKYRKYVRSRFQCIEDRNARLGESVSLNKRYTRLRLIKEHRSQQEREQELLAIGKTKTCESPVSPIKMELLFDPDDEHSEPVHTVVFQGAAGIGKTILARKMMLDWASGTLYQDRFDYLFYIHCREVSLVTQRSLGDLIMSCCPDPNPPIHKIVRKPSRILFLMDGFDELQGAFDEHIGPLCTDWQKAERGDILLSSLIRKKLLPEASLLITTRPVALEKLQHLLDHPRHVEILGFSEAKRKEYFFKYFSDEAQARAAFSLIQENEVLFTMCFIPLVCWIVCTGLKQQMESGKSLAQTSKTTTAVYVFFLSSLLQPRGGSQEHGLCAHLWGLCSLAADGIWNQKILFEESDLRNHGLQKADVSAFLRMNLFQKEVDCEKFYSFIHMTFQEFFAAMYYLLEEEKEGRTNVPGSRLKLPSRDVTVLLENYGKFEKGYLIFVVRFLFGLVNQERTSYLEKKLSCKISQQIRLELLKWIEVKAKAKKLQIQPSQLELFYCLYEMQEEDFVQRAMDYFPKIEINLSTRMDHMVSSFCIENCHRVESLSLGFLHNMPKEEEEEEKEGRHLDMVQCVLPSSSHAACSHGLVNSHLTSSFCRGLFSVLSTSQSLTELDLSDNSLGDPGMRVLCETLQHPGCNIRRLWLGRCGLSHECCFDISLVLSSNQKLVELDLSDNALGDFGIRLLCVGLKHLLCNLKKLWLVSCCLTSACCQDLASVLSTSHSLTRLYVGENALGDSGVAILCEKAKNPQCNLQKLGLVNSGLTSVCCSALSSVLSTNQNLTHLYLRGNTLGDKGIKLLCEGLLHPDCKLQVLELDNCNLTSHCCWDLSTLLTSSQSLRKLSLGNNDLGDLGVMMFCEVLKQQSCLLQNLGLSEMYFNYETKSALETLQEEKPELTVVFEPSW

Compound | IC50
Cc1cc(C(F)(F)F)cc(O)c1-c1ccc2oc(N3CCC(CO)CC3)nc2n1 [Example 78, 2-[2-[4-(Hydroxymethyl)-1-piperidyl]oxazolo[4,5-b]pyridin-5-yl]-3-methyl-5-(trifluoromethyl)phenol] | 0.0583 µM
Cc1cc(C(F)(F)F)cc(O)c1-c1ccc2oc(N[C@@H]3CCCN(C4CC(O)C4)C3)nc2n1 (stereo partly drawn) [Example 61, 2-[2-[[(3R)-1-(3-hydroxycyclobutyl)-3-piperidyl]amino]oxazolo[4,5-b]pyridin-5-yl]-3-methyl-5-(trifluoromethyl)phenol] | 0.0394 µM
CCN1CC2OCCN(c3nc4nc(-c5c(C)cc(C#N)cc5O)ccc4o3)C2C1 [Example 80, 3-Hydroxy-5-methyl-4-[2-[rel-(4aS,7aR)-6-ethyl-2,3,4a,5,7,7a-hexahydropyrrolo[3,4-b][1,4]oxazin-4-yl]oxazolo[4,5-b]pyridin-5-yl]benzonitrile] | 0.11 µM
Cc1cc(Cl)cc(O)c1-c1ccc2oc(N[C@@H]3CCCN(C[C@@H]4CC[C@H]4O)C3)nc2n1 (racemic) [Example 118B, 5-chloro-2-[2-[[(3R)-1-[[rac trans-2-hydroxycyclobutyl]methyl]-3-piperidyl]amino]oxazolo[4,5-b]pyridin-5-yl]-3-methyl-phenol or 5-chloro-2-[2-[[(3R)-1-[[rac cis-2-hydroxycyclobutyl]methyl]-3-piperidyl]amino]oxazolo[4,5-b]pyridin-5-yl]-3-methyl-phenol] | 0.0306 µM
Cc1cc(C(F)(F)F)cc(O)c1-c1ccc2oc(N3CCOCC3)nc2n1 [Example 4, 3-Methyl-2-(2-morpholinooxazolo[4,5-b]pyridin-5-yl)-5-(trifluoromethyl)phenol] | 0.0294 µM
CCN1CCC[C@@H](Nc2nc3nc(-c4c(C)cc(C#N)cc4O)cc(OC)c3o2)C1 [Example 111, 4-[2-[[(3R)-1-Ethyl-3-piperidyl]amino]-7-methoxy-oxazolo[4,5-b]pyridin-5-yl]-3-hydroxy-5-methyl-benzonitrile;2,2,2-trifluoroacetic acid] | 0.0022 µM
5-Chloro-2-[2-[[(3R)-1-ethyl-3-piperidyl]amino]oxazolo[4,5-b]pyridin-5-yl]-3-(trifluoromethoxy)phenol;2,2,2-trifluoroacetic acid [Example 114] | 0.0011 µM
CCN1CCC[C@@H](Nc2nc3nc(-c4c(C)cc(C(F)(F)F)cc4O)ccc3o2)C1 [Example 14, 2-[2-[[(3R)-1-Ethyl-3-piperidyl]amino]oxazolo[4,5-b]pyridin-5-yl]-3-methyl-5-(trifluoromethyl)phenol] | 0.001 µM
CCN1CCC2CCN(c3nc4nc(-c5c(C)cc(C#N)cc5O)ccc4o3)C2C1 (single isomer, unassigned) [Example 72A, 4-[2-[(3aS,7aR)-6-Ethyl-3,3a,4,5,7,7a-hexahydro-2H-pyrrolo[2,3-c]pyridin-1-yl]oxazolo[4,5-b]pyridin-5-yl]-3-hydroxy-5-methyl-benzonitrile or 4-[2-[(3aR,7aS)-6-ethyl-3,3a,4,5,7,7a-hexahydro-2H-pyrrolo[2,3-c]pyridin-1-yl]oxazolo[4,5-b]pyridin-5-yl]-3-hydroxy-5-methyl-benzonitrile] | 0.001 µM
